Laboratory results from the kinase profiling compilation of Christmann-Franck et al. (2016).

Key:
Assay in all cases: radiometric filter-binding kinase assay, Kinase HotSpot
Conditions in all cases: compound 0.5 µM; ATP 10 µM
PRKCI (human) = PRKCI (human) (UniProt P41743)
PTK2B (human) = PTK2B (human) (UniProt Q14289)
CLK2 (human) = CLK2 (human) (UniProt P49760)
MAP3K10 (human) = MAP3K10 (human) (UniProt Q02779)
MUSK (human) = MUSK (human) (UniProt O15146)
STK4 (human) = STK4 (human) (UniProt Q13043)
STK16 (human) = STK16 (human) (UniProt O75716)
STK16 (human), sequence (O75716 whole entry, looked up): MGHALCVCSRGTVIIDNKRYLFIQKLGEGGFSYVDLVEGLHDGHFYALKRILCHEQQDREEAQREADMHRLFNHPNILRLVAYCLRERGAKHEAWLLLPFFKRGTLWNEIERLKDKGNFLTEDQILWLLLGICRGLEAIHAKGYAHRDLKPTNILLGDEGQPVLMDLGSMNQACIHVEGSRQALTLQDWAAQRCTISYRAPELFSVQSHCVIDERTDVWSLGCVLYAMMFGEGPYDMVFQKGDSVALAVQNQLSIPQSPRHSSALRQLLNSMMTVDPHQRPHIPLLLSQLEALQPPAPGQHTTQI

STK17A (human) = STK17A (human) (UniProt Q9UEE5)
CHEK1 (human) = CHEK1 (human) (UniProt O14757)
IKBKE (human) = IKBKE (human) (UniProt Q14164)
TSSK1B (human) = TSSK1B (human) (UniProt Q9BXA7)
TSSK1B (human), sequence (Q9BXA7 whole entry, looked up): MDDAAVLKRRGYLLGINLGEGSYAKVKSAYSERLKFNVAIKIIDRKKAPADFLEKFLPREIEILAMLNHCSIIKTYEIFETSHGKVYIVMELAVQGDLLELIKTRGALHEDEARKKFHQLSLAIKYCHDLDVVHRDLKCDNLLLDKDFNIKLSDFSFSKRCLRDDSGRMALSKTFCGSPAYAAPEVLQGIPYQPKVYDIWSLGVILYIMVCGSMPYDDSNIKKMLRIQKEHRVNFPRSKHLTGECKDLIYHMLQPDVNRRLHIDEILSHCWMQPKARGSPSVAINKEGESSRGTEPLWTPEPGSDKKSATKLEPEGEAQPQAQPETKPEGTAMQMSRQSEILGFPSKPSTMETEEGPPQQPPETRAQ

PRKD3 (human) = PRKD3 (human) (UniProt O94806)
ADRBK1 (human) = ADRBK1 (human) (UniProt P25098)
CSNK1G1 (human) = CSNK1G1 (human) (UniProt Q9HCP0)
CSNK1G1 (human), sequence (Q9HCP0 whole entry, looked up): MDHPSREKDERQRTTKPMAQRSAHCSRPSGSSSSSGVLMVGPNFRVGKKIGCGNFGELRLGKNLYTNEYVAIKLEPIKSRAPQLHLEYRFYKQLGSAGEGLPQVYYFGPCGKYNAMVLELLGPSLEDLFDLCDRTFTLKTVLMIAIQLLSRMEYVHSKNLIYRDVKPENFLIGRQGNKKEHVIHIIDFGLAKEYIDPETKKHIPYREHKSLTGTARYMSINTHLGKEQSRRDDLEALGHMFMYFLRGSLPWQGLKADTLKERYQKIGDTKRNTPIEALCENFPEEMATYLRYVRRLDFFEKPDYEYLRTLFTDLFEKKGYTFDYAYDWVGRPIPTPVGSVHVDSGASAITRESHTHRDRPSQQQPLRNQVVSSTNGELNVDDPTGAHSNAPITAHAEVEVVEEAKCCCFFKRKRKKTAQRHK

BRSK2 (human) = BRSK2 (human) (UniProt Q8IWQ3)
BRSK2 (human), sequence (Q8IWQ3 whole entry, looked up): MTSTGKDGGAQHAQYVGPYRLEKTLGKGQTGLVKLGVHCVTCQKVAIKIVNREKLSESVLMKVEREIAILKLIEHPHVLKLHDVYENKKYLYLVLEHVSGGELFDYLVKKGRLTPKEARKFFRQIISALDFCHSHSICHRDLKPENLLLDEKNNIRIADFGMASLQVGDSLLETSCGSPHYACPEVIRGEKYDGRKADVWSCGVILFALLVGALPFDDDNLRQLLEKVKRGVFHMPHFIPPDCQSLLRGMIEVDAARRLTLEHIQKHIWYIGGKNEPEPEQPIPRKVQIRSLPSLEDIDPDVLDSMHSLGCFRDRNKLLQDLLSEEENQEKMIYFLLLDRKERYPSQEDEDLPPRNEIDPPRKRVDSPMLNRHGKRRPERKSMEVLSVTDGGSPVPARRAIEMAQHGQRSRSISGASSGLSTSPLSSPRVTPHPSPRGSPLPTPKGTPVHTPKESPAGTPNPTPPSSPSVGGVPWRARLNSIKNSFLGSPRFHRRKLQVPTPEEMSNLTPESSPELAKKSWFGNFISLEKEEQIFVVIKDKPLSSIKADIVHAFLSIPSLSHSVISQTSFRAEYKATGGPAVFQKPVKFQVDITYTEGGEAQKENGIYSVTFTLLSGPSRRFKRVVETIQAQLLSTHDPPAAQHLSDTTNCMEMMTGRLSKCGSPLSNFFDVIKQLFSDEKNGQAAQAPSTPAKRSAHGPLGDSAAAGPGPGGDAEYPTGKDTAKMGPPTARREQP

[1] = system: MAP2K6 (human), P52564 [S207E/T211E]
CDK4 CCND1 (human) = CDK4 CCND1 (human) (UniProt P24385+P11802)
DDR2 (human) = DDR2 (human) (UniProt Q16832)
RPS6KB1 (human) = RPS6KB1 (human) (UniProt P23443)
MAP3K8 (human) = MAP3K8 (human) (UniProt P41279)
SRC (human) = SRC (human) (UniProt P12931)
BLK (human) = BLK (human) (UniProt P51451)
IRAK4 (human) = IRAK4 (human) (UniProt Q9NWZ3)
HIPK1 (human) = HIPK1 (human) (UniProt Q86Z02)
CSNK1E (human) = CSNK1E (human) (UniProt P49674)
MAPK11 (human) = MAPK11 (human) (UniProt Q15759)
MAPK11 (human), sequence (Q15759 whole entry, looked up): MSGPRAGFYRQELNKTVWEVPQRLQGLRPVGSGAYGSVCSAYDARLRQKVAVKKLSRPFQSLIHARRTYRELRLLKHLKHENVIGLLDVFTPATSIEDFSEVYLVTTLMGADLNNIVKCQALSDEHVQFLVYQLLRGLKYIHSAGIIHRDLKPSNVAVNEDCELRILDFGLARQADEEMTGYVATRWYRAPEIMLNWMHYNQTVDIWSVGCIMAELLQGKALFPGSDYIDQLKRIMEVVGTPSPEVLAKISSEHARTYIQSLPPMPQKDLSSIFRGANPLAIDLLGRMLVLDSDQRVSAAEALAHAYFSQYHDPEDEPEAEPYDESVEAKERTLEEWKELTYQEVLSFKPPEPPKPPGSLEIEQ

DYRK3 (human) = DYRK3 (human) (UniProt O43781)
LTK (human) = LTK (human) (UniProt P29376)
LTK (human), sequence (P29376 whole entry, looked up): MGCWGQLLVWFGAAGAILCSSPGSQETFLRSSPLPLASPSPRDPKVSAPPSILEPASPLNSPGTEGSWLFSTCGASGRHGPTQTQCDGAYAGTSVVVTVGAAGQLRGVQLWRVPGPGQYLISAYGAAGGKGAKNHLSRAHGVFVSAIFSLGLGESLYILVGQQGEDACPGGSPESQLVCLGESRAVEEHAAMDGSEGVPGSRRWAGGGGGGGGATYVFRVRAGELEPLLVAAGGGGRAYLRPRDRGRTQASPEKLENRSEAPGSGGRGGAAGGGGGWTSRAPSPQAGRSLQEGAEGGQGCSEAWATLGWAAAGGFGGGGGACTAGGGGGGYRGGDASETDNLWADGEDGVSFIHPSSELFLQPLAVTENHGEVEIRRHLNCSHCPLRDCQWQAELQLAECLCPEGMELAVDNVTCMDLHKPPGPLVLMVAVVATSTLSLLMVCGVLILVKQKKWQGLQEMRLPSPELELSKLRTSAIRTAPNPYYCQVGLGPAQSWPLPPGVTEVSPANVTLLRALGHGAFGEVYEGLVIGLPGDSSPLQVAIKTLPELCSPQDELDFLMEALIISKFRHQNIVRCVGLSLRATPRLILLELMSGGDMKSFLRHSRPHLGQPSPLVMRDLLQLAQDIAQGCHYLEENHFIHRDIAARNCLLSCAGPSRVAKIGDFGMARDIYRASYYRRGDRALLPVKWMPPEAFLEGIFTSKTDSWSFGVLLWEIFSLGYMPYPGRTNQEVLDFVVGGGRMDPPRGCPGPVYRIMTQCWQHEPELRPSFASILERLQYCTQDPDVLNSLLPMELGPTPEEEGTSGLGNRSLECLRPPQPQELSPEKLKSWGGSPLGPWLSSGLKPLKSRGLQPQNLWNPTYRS

OXSR1 (human) = OXSR1 (human) (UniProt O95747)
ROCK2 (human) = ROCK2 (human) (UniProt O75116)
CAMK1 (human) = CAMK1 (human) (UniProt Q14012)
CAMK1 (human), sequence (Q14012 whole entry, looked up): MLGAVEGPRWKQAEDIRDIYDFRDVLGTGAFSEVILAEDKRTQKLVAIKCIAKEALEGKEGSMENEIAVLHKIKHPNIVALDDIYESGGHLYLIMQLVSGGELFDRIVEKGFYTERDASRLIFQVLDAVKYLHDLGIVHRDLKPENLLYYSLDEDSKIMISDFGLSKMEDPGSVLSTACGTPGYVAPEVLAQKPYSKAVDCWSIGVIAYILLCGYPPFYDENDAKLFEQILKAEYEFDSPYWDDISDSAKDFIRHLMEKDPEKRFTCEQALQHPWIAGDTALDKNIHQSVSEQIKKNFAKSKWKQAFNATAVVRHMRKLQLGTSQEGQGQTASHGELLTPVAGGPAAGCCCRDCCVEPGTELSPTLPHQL

SIK2 (human) = SIK2 (human) (UniProt Q9H0K1)
SIK2 (human), sequence (Q9H0K1 whole entry, looked up): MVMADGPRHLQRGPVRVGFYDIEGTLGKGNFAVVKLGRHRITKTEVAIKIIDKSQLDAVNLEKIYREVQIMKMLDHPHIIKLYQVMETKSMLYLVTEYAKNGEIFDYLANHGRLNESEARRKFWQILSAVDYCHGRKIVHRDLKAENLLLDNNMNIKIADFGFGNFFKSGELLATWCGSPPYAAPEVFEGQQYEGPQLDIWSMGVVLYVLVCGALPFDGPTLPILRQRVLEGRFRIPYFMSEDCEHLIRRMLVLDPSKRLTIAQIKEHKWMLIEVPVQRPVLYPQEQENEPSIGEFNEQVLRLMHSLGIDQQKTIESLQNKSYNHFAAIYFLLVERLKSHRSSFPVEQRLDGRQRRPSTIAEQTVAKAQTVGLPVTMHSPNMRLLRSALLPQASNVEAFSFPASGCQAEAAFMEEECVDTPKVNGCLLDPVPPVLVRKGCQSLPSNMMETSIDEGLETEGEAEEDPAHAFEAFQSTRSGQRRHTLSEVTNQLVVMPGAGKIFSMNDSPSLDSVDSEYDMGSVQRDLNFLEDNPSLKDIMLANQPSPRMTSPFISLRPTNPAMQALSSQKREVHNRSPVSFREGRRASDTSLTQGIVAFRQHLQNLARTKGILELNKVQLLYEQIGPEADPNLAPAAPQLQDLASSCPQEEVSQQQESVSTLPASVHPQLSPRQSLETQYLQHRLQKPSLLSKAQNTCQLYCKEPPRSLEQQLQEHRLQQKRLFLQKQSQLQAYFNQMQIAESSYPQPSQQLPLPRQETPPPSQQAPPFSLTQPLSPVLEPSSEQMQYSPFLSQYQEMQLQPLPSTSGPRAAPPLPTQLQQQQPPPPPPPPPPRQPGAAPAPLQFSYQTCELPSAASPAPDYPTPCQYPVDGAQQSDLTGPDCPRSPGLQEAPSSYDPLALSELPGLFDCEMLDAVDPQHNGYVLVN

PLK2 (human) = PLK2 (human) (UniProt Q9NYY3)
ALK (human) = ALK (human) (UniProt Q9UM73)
MAP3K14 (human) = MAP3K14 (human) (UniProt Q99558)
AKT3 (human) = AKT3 (human) (UniProt Q9Y243)
ROCK1 (human) = ROCK1 (human) (UniProt Q13464)
PAK6 (human) = PAK6 (human) (UniProt Q9NQU5)
EPHB1 (human) = EPHB1 (human) (UniProt P54762)
MAP2K2 (human) = MAP2K2 (human) (UniProt P36507)
PAK3 (human) = PAK3 (human) (UniProt O75914)
MAP2K1 (human) = MAP2K1 (human) (UniProt Q02750)

PRKCI (human), sequence (P41743 whole entry, looked up): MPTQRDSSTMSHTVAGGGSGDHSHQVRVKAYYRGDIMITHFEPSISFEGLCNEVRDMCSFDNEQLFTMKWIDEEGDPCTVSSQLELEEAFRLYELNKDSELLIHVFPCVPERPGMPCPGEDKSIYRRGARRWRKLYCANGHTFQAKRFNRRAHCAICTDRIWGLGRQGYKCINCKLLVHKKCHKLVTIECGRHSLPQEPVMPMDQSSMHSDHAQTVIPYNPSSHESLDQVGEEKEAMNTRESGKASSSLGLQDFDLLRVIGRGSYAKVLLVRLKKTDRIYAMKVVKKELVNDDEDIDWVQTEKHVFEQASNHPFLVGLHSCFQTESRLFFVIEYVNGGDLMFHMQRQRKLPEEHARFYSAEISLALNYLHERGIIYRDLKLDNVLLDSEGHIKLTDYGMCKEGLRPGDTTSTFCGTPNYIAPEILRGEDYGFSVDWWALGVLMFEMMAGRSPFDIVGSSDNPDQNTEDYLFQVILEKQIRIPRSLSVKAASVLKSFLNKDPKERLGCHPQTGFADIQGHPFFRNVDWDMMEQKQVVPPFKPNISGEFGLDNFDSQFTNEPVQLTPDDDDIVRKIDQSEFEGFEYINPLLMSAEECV

For `COc1cc(Nc2c(C#N)cnc3cc(OCCCN4CCN(C)CC4)c(OC)cc23)c(Cl)cc1Cl`, the residual activity (PRKCI (human)) was 99.4%, the residual activity (PTK2B (human)) was 32.6% and the residual activity (CLK2 (human)) was 69.3%. For the same compound, the residual activity (MAP3K10 (human)) was 22.9%, the residual activity (MUSK (human)) was 81.7% and the residual activity (STK4 (human)) was 7.4%. For the same compound, the residual activity (STK16 (human)) was 85.1%, the residual activity (STK17A (human)) was 107% and the residual activity (CHEK1 (human)) was 38.9%. It also gave a residual activity (IKBKE (human)) of 75.4%, a residual activity (TSSK1B (human)) of 79.2% and a residual activity (PRKD3 (human)) of 42.2%. The residual activity (ADRBK1 (human)) was 97.3%, the residual activity (CSNK1G1 (human)) was 95.7% and the residual activity (BRSK2 (human)) was 94.2%. It also gave a residual activity [1] of 93.4%, a residual activity (CDK4 CCND1 (human)) of 97.1% and a residual activity (DDR2 (human)) of 105%. It also gave a residual activity (RPS6KB1 (human)) of 87.7%, a residual activity (MAP3K8 (human)) of 101% and a residual activity (SRC (human)) of 6.05%. The residual activity (BLK (human)) was 20.7%, the residual activity (IRAK4 (human)) was 63.2% and the residual activity (HIPK1 (human)) was 96.3%. It also gave a residual activity (CSNK1E (human)) of 11.4%, a residual activity (MAPK11 (human)) of 101% and a residual activity (DYRK3 (human)) of 91.8%. The residual activity (LTK (human)) was 57.7%, the residual activity (OXSR1 (human)) was 100% and the residual activity (ROCK2 (human)) was 85%. The residual activity (CAMK1 (human)) was 68.9%, the residual activity (SIK2 (human)) was 1.93% and the residual activity (PLK2 (human)) was 100%. The residual activity (ALK (human)) was 66%, the residual activity (MAP3K14 (human)) was 129% and the residual activity (AKT3 (human)) was 90.7%. It also gave a residual activity (ROCK1 (human)) of 105%, a residual activity (PAK6 (human)) of 105% and a residual activity (EPHB1 (human)) of 11.8%.
`COc1ccc2c(c1)/C(=C/c1cnc[nH]1)C(O)=N2` gave a residual activity (PRKCI (human)) of 96.9%, a residual activity (CLK2 (human)) of 80.6% and a residual activity (MAP3K10 (human)) of 92.9%. The residual activity (MAP2K2 (human)) was 108%, the residual activity (MUSK (human)) was 78.3% and the residual activity (STK4 (human)) was 5.67%. The residual activity (STK16 (human)) was 76.2%, the residual activity (STK17A (human)) was 42.3% and the residual activity (CHEK1 (human)) was 76%. For the same compound, the residual activity (IKBKE (human)) was 92.5%, the residual activity (TSSK1B (human)) was 101% and the residual activity (PRKD3 (human)) was 38%. For the same compound, the residual activity (ADRBK1 (human)) was 107%, the residual activity (CSNK1G1 (human)) was 106% and the residual activity (BRSK2 (human)) was 61.7%. For the same compound, the residual activity [1] was 90.1%, the residual activity (CDK4 CCND1 (human)) was 33.7% and the residual activity (DDR2 (human)) was 95.5%. The residual activity (RPS6KB1 (human)) was 98.2%, the residual activity (MAP3K8 (human)) was 91.1% and the residual activity (PAK3 (human)) was 99.2%. The residual activity (SRC (human)) was 92.1%, the residual activity (BLK (human)) was 90.3% and the residual activity (IRAK4 (human)) was 92.2%. For the same compound, the residual activity (HIPK1 (human)) was 98.9%, the residual activity (CSNK1E (human)) was 80% and the residual activity (MAPK11 (human)) was 103%. The residual activity (DYRK3 (human)) was 98.6%, the residual activity (LTK (human)) was 93.6% and the residual activity (OXSR1 (human)) was 97.3%. For the same compound, the residual activity (ROCK2 (human)) was 87.4%, the residual activity (CAMK1 (human)) was 103% and the residual activity (SIK2 (human)) was 100%. For the same compound, the residual activity (PLK2 (human)) was 95.2%, the residual activity (ALK (human)) was 112% and the residual activity (MAP2K1 (human)) was 94.8%. The residual activity (MAP3K14 (human)) was 96.9%, the residual activity (AKT3 (human)) was 101% and the residual activity (ROCK1 (human)) was 96%. It also gave a residual activity (PAK6 (human)) of 101% and a residual activity (EPHB1 (human)) of 92.2%.
Compound `O=C1C(Cl)=C(N2C(=O)CCC2=O)C(=O)c2ccccc21` has a residual activity (PRKCI (human)) of 96.6%, a residual activity (PTK2B (human)) of 105% and a residual activity (CLK2 (human)) of 90.7%. The residual activity (MAP3K10 (human)) was 92.8%, the residual activity (MAP2K2 (human)) was 106% and the residual activity (MUSK (human)) was 104%. The residual activity (STK4 (human)) was 89.1%, the residual activity (STK16 (human)) was 100% and the residual activity (STK17A (human)) was 101%. It also gave a residual activity (CHEK1 (human)) of 111%, a residual activity (IKBKE (human)) of 99.6% and a residual activity (TSSK1B (human)) of 104%. It also gave a residual activity (PRKD3 (human)) of 88.2%, a residual activity (ADRBK1 (human)) of 105% and a residual activity (CSNK1G1 (human)) of 147%. It also gave a residual activity (BRSK2 (human)) of 100%, a residual activity [1] of 107% and a residual activity (CDK4 CCND1 (human)) of 103%. For the same compound, the residual activity (DDR2 (human)) was 95.8%, the residual activity (RPS6KB1 (human)) was 101% and the residual activity (MAP3K8 (human)) was 91.8%. It also gave a residual activity (PAK3 (human)) of 104%, a residual activity (SRC (human)) of 95.1% and a residual activity (IRAK4 (human)) of 89.1%. For the same compound, the residual activity (HIPK1 (human)) was 104%, the residual activity (CSNK1E (human)) was 102% and the residual activity (MAPK11 (human)) was 105%. For the same compound, the residual activity (DYRK3 (human)) was 95.4%, the residual activity (LTK (human)) was 100% and the residual activity (OXSR1 (human)) was 108%. The residual activity (ROCK2 (human)) was 91.5%, the residual activity (CAMK1 (human)) was 98.3% and the residual activity (SIK2 (human)) was 92.8%. It also gave a residual activity (PLK2 (human)) of 96%, a residual activity (ALK (human)) of 88.5% and a residual activity (MAP2K1 (human)) of 76.5%. The residual activity (MAP3K14 (human)) was 102%, the residual activity (AKT3 (human)) was 105% and the residual activity (ROCK1 (human)) was 106%. For the same compound, the residual activity (PAK6 (human)) was 89.6% and the residual activity (EPHB1 (human)) was 97.2%.
